Consider 35 compounds from patent US20060160848A1 (priority 2002, published 2006).

A word on the mortality: it is the share of the test organisms that died. A lower mortality goes with a weak lethal effect.

Like-named read-outs stand apart in the source and are kept apart here.

In data set [1] the test system is mouse hepatocytes. The data set is described as follows: cells. To be noted: Hepatocyte, 1 h.
A further data set addresses T1, acrolein-modified BSA (Bos taurus, UniProt P02769).
T1 construct: a model protein (BSA, bovine serum albumin); from tissue; host or cells: bovine serum (from the protein's name only)
The experiment in a line: Cell-free immunoassay for adduct-breaking on acrolein-pretreated BSA. Type of data set: biochemical, bovine. To be noted: BSA pretreated with 1 mM acrolein 20 min; 50, 250 and 500 μM test compound, 30 min at 37° C.

For data set [2] the following is noted: pH 7.
Data set [3] deals with mouse hepatocytes.
For data set [4], the system named is mouse hepatocytes. The experiment in a line: Crotyl alcohol toxicity in isolated mouse hepatocytes (LDH leakage). Particulars: 500 μM crotyl alcohol; for protection against crotyl alcohol toxicity by other hydrazines: 1-100 μM hydrazine, 1-3 hours. In general terms: LDH leaks from cells whose membrane has failed.
In data set [5] the test system is mouse hepatocytes. The source holds these as a separate data set.
The test system of the next data set is mouse liver. The experiment in a line: Adduct-trapping in mouse liver proteins (Western blot, immunohistochemistry). It counts as in vivo. Particulars: 4 hours after 300 μmol/kg i.p.; hydralazine given with allyl alcohol, hydrazone given alone. Background: A western blot detects proteins with antibodies after separation by electrophoresis.
A further data set deals with mice. The experiment in a line: Allyl alcohol hepatotoxicity in mice (plasma SDH, GPT, hepatic GSH).
Data set [6] concerns mouse hepatocytes. The experiment in a line: Toxicity of smoke extract in mouse hepatocytes (LDH leakage). Type of data set: cell-based. Particulars: 50 μM smoke-derived acrolein equivalents; 25, 50 and 100 μM drug; up to 180 min.
The next data set deals with PC-12 cells. The experiment in a line: Allylamine cytotoxicity in PC-12 cells (MTT).
The mark [7] stands for this setting: read-out: PC50 (concentration producing a 50% decrease in LDH leakage).
[8] abbreviates: read-out: PC50 (concentration affording 50% reduction in cell killing).

T1 sequence (P02769 25-607): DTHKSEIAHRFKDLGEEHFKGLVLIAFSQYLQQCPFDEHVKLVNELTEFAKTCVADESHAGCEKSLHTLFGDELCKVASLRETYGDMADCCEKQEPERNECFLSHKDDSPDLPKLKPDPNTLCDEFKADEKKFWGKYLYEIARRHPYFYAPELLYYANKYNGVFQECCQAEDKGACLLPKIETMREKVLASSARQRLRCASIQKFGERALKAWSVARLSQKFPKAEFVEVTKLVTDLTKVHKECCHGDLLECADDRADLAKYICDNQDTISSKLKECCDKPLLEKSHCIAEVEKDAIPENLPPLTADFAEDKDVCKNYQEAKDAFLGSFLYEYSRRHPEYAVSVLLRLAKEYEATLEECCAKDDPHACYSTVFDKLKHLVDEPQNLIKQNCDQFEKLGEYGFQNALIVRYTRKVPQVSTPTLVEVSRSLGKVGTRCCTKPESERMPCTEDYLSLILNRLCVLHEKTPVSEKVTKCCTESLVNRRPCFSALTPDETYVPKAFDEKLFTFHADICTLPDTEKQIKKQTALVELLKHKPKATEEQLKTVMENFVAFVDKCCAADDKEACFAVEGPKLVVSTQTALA

Turning to `Nc1ccccc1O` [o-aminophenol], the EC50 in the data set with mouse hepatocytes [1] (setting [7]) stood at 18 ± 3.2 µM.

Turning to `CON` [methoxyamine], the “adduct-breaking activity (acrolein-lysine adducts in BSA)” value (“adduct-breaking activity” below) on acrolein-modified BSA is “effects were most evident at the top concentration studied”. The “acrolein removed from solution” value in data set [2] is “around 40%”. The EC50 in the data set with mouse hepatocytes [1] (setting [8]) and with mouse hepatocytes [1] (setting [7]) was 9000 ± 1800 µM in each case.

`Cc1ncc(CO)c(CN)c1O` [pyridoxamine]: the “adduct-breaking activity” value on acrolein-modified BSA is on record as “lacked adduct-breaking potency”. For the same compound, the EC50 in the data set with mouse hepatocytes [1] (setting [8]) and in the data set with mouse hepatocytes [1] (setting [7]) was greater than 10000 µM each time. For `Nc1ccccc1` [aniline], the EC50 with mouse hepatocytes [1] (setting [7]) was 61 ± 20 µM. Turning to `NNc1nccc2ccccc12` [hydrazinoisoquinoline, 1-hydrazinoisoquinoline], the EC50 in the data set on mouse hepatocytes [1] (setting [7]) stood at 6 ± 0.14 µM. Consider `NNc1ccccn1` [hydrazinopyridine, 2-hydrazinopyridine], for which the EC50 in the data set with mouse hepatocytes [1] (setting [7]) came to 40 ± 6.1 µM.

For the compound `NNc1cccc2ccccc12` [naphthylhydrazine], the EC50 in the data set with mouse hepatocytes [1] (setting [7]) stood at 7 ± 0.19 µM.

Regarding `CCCC(C(=O)OCCN(CC)CC)(c1ccccc1)c1ccccc1` [proadifen], in the data set on mouse hepatocytes [3], the “effect on cyclophosphamide-induced LDH leakage” value was “abolished the cyclophosphamide-induced increase in LDH leakage”. In the case of `NN(c1ccccc1)c1ccccc1` [1,1-diphenylhydrazine], in the data set on mouse hepatocytes [1] (setting [7]), the EC50 worked out at 2 ± 0.01 µM. Moreover, the “protection against crotyl alcohol toxicity by other hydrazines” value in the data set with mouse hepatocytes [4] was “best protection”. For the compound `C1CCC(NC2CCCCC2)CC1` [dicyclohexylamine], the EC50 with mouse hepatocytes [1] (setting [7]) came out at 59 ± 11 µM. As for aminoguanidine, the “adduct-breaking activity” value on acrolein-modified BSA was “lacked adduct-breaking potency”. Besides, the “acrolein removed from solution” value in [2] is “approximately 4%”. Further, the EC50 in the data set on mouse hepatocytes [5] (setting [8]) and with mouse hepatocytes [5] (setting [7]) was greater than 10000 µM each time. In the case of `NC1CCCCC1` [cyclohexylamine], in the data set with mouse hepatocytes [1] (setting [7]), the EC50 was greater than 100 µM. Take `NNCc1ccccc1` [benzylhydrazine]: in the data set with mouse hepatocytes [1] (setting [7]), the EC50 was found to be 37 ± 1.8 µM. Moreover, the “protection against crotyl alcohol toxicity by other hydrazines” value in the data set with mouse hepatocytes [4] was “very poor cytoprotection”.

`O=P1(N(CCCl)CCCl)NCCCO1` (centres unmarked) [cyclophosphamide]: the “concentration producing complete cell death” value in the data set on mouse hepatocytes [3] (18-hr incubation) is no less than 250 µM. Turning to `Nc1ccc(O)cc1` [p-aminophenol], the EC50 in the data set on mouse hepatocytes [1] (setting [7]) came to 20 ± 8.5 µM. In the case of `C=C/C=N/Nc1nncc2ccccc12` [(1E)-acrylaldehyde 1-[1-phthalazinyl]-hydrazone], the “immunohistochemical detection of hydralazine-stabilized acrolein adducts in liver sections” value in the data set on mouse liver is “no immunorecognition was evident”. As to `NCc1ccccc1` [benzylamine], in the data set on mouse hepatocytes [1] (setting [7]), the EC50 was greater than 100 µM. For the compound `CCCCNC` [N-methylbutylamine], the EC50 in the data set with mouse hepatocytes [1] (setting [7]) stood at 6 ± 2.2 µM.

As to `c1ccc(Nc2ccccc2)cc1` [diphenylamine], the EC50 in the data set with mouse hepatocytes [1] (setting [7]) came out at 3 ± 1.2 µM. `C=CCO` [allyl alcohol] showed a cell death induced in the data set on mouse hepatocytes [5] (mouse) of 100%. In the data set with mice (90 mg/kg), the fatalities result is given as “no fatalities”. Further, in the data set on mice (90 mg/kg i.p., 4 hours), the “decrease in hepatic GSH stores” value stood at 65%, the “elevation of plasma GPT activity over controls” value is reported as 24 fold and the “elevation of plasma SDH activity over controls” value came out at 30 fold. Moreover, in the data set with mice (100 mg/kg), the mortality turned out to be 30%. As for 1,1-dimethylhydrazine, the EC50 in the data set on mouse hepatocytes [5] (setting [7]) was greater than 100 µM.

In the case of `Sc1ccccc1` [thiophenol], the EC50 with mouse hepatocytes [1] (setting [7]) was greater than 100 µM. Still for that read-out and setting: for `CC(C)NC(C)C` [diisopropylamine] the value was 66 ± 15 µM; for `c1ccc2c(c1)[nH]c1ccccc12` [carbazole], 40 ± 12 µM; for `c1ccc(Nc2ccc(Nc3ccccc3)cc2)cc1` [N,N′-Diphenyl-p- phenylenediamine, N,N′-Diphenyl-p-phenylenediamine], 4 ± 1.3 µM. As to `NNc1ccc2ccccc2n1` [hydrazinoquinoline, 2-hydrazinoquinoline], the EC50 in the data set with mouse hepatocytes [1] (setting [7]) was 11 ± 0.44 µM. With `NNc1nnc(NN)c2ccccc12` [dihydralazine], the “adduct-breaking activity” value on acrolein-modified BSA is listed as “reducing adducts below detectable levels”. In addition, in the data set with mouse hepatocytes [6], the “attenuation of LDH leakage caused by smoke extract” value is listed as “completely attenuating LDH leakage at all concentrations examined”. Also, the “acrolein removed from solution” value in [2] was roughly 92%. Besides, in the data set with mouse hepatocytes [5], the “attenuation of allyl alcohol toxicity (LDH leakage)” value is listed as “strongly attenuated the toxicity of allyl alcohol” and the “protection against allyl alcohol toxicity (LDH leakage)” value is recorded as “approximately twice as protective as hydralazine”. Further, the “effect on cyclophosphamide-induced LDH leakage” value with mouse hepatocytes [3] is “attenuated the toxicity of cyclophosphamide”. In the data set on mouse hepatocytes [1] (setting [8]), the EC50 came to 5.2 ± 1.5 µM. Further, in the data set on mouse hepatocytes [1] (setting [7]), the EC50 came to 13 ± 0.29 µM. Moreover, the “cell viability restored to” value with PC-12 cells (45 μM allylamine, 24 hr, approximately 1 μM dihydralazine and higher, allylamine alone about 40% of controls) is “approximately 80%”. Further, the “protection against crotyl alcohol toxicity (LDH leakage)” value with mouse hepatocytes [4] (co-incubated up to 3 hours, 1-100 μM) is given as “approximately twice as effective as hydralazine”. On to `C=CCN` [allylamine], for which the EC50 in the data set on PC-12 cells (Rattus norvegicus, PC-12, 24 h, read-out: concentration producing 50% cell death) is roughly 45 µM.

Turning to `NCCCC[C@H](N)C(=O)O` [lysine], the “acrolein removed from solution” value in data set [2] was “approximately 13%”. Take `NNc1ncnc2ccccc12` [hydrazinoquinazoline, 4-hydrazinoquinazoline]: the EC50 in the data set with mouse hepatocytes [1] (setting [7]) turned out to be 10 ± 0.05 µM.

As to `O=C(O)c1ccccc1O` [salicylic acid], the EC50 in the data set on mouse hepatocytes [1] (setting [7]) turned out to be 59 ± 11 µM. Same read-out and setting: to `NNc1ccccc1` [phenylhydrazine] belongs 8 ± 0.28 µM. In the data set on mouse hepatocytes [4] (by 3 hours), `C/C=C/CO` [crotyl alcohol] yielded a cell death induced of 100%.

Consider `Oc1ccccc1` [phenol], for which, in the data set on mouse hepatocytes [1] (setting [7]), the EC50 is 48 ± 12 µM.

As for `c1ccc(NNc2ccccc2)cc1` [1,2-diphenylhydrazine], the EC50 in the data set with mouse hepatocytes [1] (setting [7]) stood at 19 ± 2.6 µM.
